From patent US8076487B2, “Pyridone derivative and herbicide” (Kumiai Chemical Industry Co., Ltd., priority 2006, dated 2011) come the findings set out here.

Assay type in all cases: in vivo
For experiment [1], the system named is velvetleaf (Abutilon theophrasti medicus). The experiment is described as follows: Test Example 2: herbicidal effect by soil application to upland field. The note with it: soil surface spray, upland field soil, 1,000 g active ingredient per hectare, 21st day after application. The method, then:
(§1) [table] Test Example 2 Test on Herbicidal Effect by Soil Application to Upland field In a 80 cm2 plastic pot, field soil was filled. Seeds of barnyardgrass (Echinochloa crus-galli (L.) P. Beauv. var. crus-galli), green foxtail (Setaria viridis (L.) P. Beauv.), velvetleaf (Abutilon theophrasti medicus), and slender amaranth (Amaranthus viridis L.) were sown and covered with soils. The wettable powder prepared according to Formulation Example 1 was diluted in water and a 1,000 liter equivalent amount per 1 hectare so that the active ingredient becomes 1,000 g per 1 hectare was uniformly sprayed on a soil surface using a small sprayer. Then, on the 21st day after the application to the plants grew in a greenhouse, the herbicidal effect was examined in accordance with a standard shown in Table 34.

The test system of experiment [2] is green foxtail (Setaria viridis (L.) P. Beauv.). Described as above. As to conditions: soil surface spray, upland field soil, 1,000 g active ingredient per hectare, 21st day after application. The method, then:
as §1

Experiment [3] relates to barnyardgrass (Echinochloa crus-galli (L.) P. Beauv. var. crus-galli). The experiment is described as above. As to conditions: soil surface spray, upland field soil, 1,000 g active ingredient per hectare, 21st day after application. The method, then:
as §1

In experiment [4] the test system is slender amaranth (Amaranthus viridis L.). The experiment is described as above. As to conditions: soil surface spray, upland field soil, 1,000 g active ingredient per hectare, 21st day after application. How it is done:
as §1

The test system of experiment [5] is heartshape false pickerelweed (Monochoria vaginalis (Burm.f.) C.Presl). Put plainly: Test Example 1: herbicidal effect by soil application to paddy field. As to conditions: paddy field soil application; active ingredient 1,000 g per 1 hectare; wettable powder added dropwise to water surface the day after sowing; examined on the 21st day after application. In a few lines: (§2)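 Plants were sown in flooded (3 cm) paddy soil and evaluated for herbicidal effect 21 days after soil application in a greenhouse.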

The test system of experiment [6] is Japanese bulrush (Scirpus juncoides Roxb.). The experiment is described as above. The note with it: paddy field soil application; active ingredient 1,000 g per 1 hectare; wettable powder added dropwise to water surface the day after sowing; examined on the 21st day after application. In a few lines: as §2
Experiment [7] relates to early watergrass (Echinochloa oryzicola Vasing). The description is as above. As to conditions: paddy field soil application; active ingredient 1,000 g per 1 hectare; wettable powder added dropwise to water surface the day after sowing; examined on the 21st day after application. Summed up: as §2
The test system of experiment [8] is velvetleaf (Abutilon theophrasti medicus). Put plainly: Test Example 3: herbicidal effect by application to upland field (foliage treatment). As to conditions: foliage treatment, 1,000 g active ingredient per 1 hectare, 14th day after application, greenhouse. In a few lines: (§3)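 Plants were sown in field soil and raised in a greenhouse for two weeks before foliar spraying. A water-diluted wettable powder was applied at 1,000 g active ingredient per hectare in 1,000 liters per hectare. Herbicidal effect was scored on a standard scale 14 days later.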

For experiment [9], the system named is green foxtail (Setaria viridis (L.) P. Beauv.). The experiment is described as above. As to conditions: foliage treatment, 1,000 g active ingredient per 1 hectare, 14th day after application, greenhouse. In a few lines: as §3
The subject of experiment [10] is barnyardgrass (Echinochloa crus-galli (L.) P. Beauv. var. crus-galli). Described as above. As to conditions: foliage treatment, 1,000 g active ingredient per 1 hectare, 14th day after application, greenhouse. Summed up: as §3
The test system of experiment [11] is slender amaranth (Amaranthus viridis L.). The experiment is described as above. As to conditions: foliage treatment, 1,000 g active ingredient per 1 hectare, 14th day after application, greenhouse. In a few lines: as §3

On to `CC(C)(C)c1ccc(-n2c(C(F)(F)F)ccc(C(=O)C3=C(O)CCCC3=O)c2=O)cc1` [I-96], for which, in experiment [1], the “herbicidal effect (index), Velvetleaf” value was 5 (90% or more of herbicidal effect and crop phytotoxicity). In [2], the “herbicidal effect (index), Green Foxtail” value is 5 (90% or more of herbicidal effect and crop phytotoxicity). Moreover, the “herbicidal effect (index), Barnyardgrass” value in experiment [3] was 5 (90% or more of herbicidal effect and crop phytotoxicity). For the same compound, the “herbicidal effect (index), Slender Amaranth” value in experiment [4] is 3 (50 to less than 70% of herbicidal effect and crop phytotoxicity). In addition, the “herbicidal effect, Monochoria vaginalis (Burm. f.) C. Presl” value (from here on “herbicidal effect, Monochoria vaginalis”) in [5] was 5 (90% or more of herbicidal effect and crop phytotoxicity). Further, the “herbicidal effect, Scirpus juncoides Roxb.” value in experiment [6] was 5 (90% or more of herbicidal effect and crop phytotoxicity). The “herbicidal effect, Echinochloa oryzicola Vasing” value in [7] is 5 (90% or more of herbicidal effect and crop phytotoxicity).

As to `O=C1CCCC(O)=C1C(=O)c1ccc(C(F)(F)F)n(Cc2cc(Cl)nc(Cl)c2)c1=O` [I-124], the “herbicidal effect (index), Velvetleaf” value in [1] was 5 (90% or more of herbicidal effect and crop phytotoxicity). The “herbicidal effect (index), Green Foxtail” value in experiment [2] was 5 (90% or more of herbicidal effect and crop phytotoxicity). In addition, the “herbicidal effect (index), Barnyardgrass” value in [3] is 5 (90% or more of herbicidal effect and crop phytotoxicity). The “herbicidal effect (index), Slender Amaranth” value in experiment [4] was 5 (90% or more of herbicidal effect and crop phytotoxicity). Moreover, in experiment [5], the “herbicidal effect, Monochoria vaginalis” value was 5 (90% or more of herbicidal effect and crop phytotoxicity). Besides, the “herbicidal effect, Scirpus juncoides Roxb.” value in experiment [6] is 5 (90% or more of herbicidal effect and crop phytotoxicity). In addition, the “herbicidal effect, Echinochloa oryzicola Vasing” value in experiment [7] was 5 (90% or more of herbicidal effect and crop phytotoxicity).

As to `CCCS(=O)(=O)Oc1c(C(=O)c2ccc(C(F)(F)F)n(CCC=C(Cl)Cl)c2=O)cnn1C` [IV-31], in experiment [1], the “herbicidal effect (index), Velvetleaf” value was 4 (70 to less than 90% of herbicidal effect and crop phytotoxicity). Also, the “herbicidal effect (index), Green Foxtail” value in experiment [2] is 3 (50 to less than 70% of herbicidal effect and crop phytotoxicity). In experiment [3], the “herbicidal effect (index), Barnyardgrass” value was 4 (70 to less than 90% of herbicidal effect and crop phytotoxicity). The “herbicidal effect (index), Slender Amaranth” value in experiment [4] is 5 (90% or more of herbicidal effect and crop phytotoxicity).

As to `Cc1nn(C)c(O)c1C(=O)c1ccc(C(F)(F)F)n(C)c1=O` [IV-231], in experiment [8], the “herbicidal effect, Velvetleaf” value is 5 (90% or more of herbicidal effect and crop phytotoxicity). Besides, the “herbicidal effect, Green Foxtail” value in experiment [9] was 5 (90% or more of herbicidal effect and crop phytotoxicity). For the same compound, the “herbicidal effect, Barnyardgrass” value in experiment [10] is 3 (50 to less than 70% of herbicidal effect and crop phytotoxicity). Further, the “herbicidal effect, Slender Amaranth” value in experiment [11] is 5 (90% or more of herbicidal effect and crop phytotoxicity). For the same compound, the “herbicidal effect, Monochoria vaginalis” value in experiment [5] was 5 (90% or more of herbicidal effect and crop phytotoxicity). The “herbicidal effect, Scirpus juncoides Roxb.” value in experiment [6] is 5 (90% or more of herbicidal effect and crop phytotoxicity). For the same compound, the “herbicidal effect, Echinochloa oryzicola Vasing” value in [7] is 5 (90% or more of herbicidal effect and crop phytotoxicity).

Consider `N#CC(C(=O)c1ccc(C(F)(F)F)n(CC(F)(F)F)c1=O)=C(O)C1CC1` [V-22], for which the “herbicidal effect (index), Velvetleaf” value in [1] was 5 (90% or more of herbicidal effect and crop phytotoxicity). Besides, the “herbicidal effect (index), Green Foxtail” value in experiment [2] was 4 (70 to less than 90% of herbicidal effect and crop phytotoxicity). Further, in experiment [3], the “herbicidal effect (index), Barnyardgrass” value is 4 (70 to less than 90% of herbicidal effect and crop phytotoxicity). Further, in [4], the “herbicidal effect (index), Slender Amaranth” value is 5 (90% or more of herbicidal effect and crop phytotoxicity).
